This is an account of results in patent publication US12187742B2 (XRAD Therapeutics, Inc., priority 2018, dated 2025).

Where a name gives a salt, the structure may show the parent alone.

In one test the target is DNA-PK (Homo sapiens (Human), UniProt P78527). The test is described as follows: DNA-PK Enzyme-Linked Immunosorbent Assay (phosphorylation of GST-p53 (1-101) peptide). The settings on record: ELISA. It counts as biochemical. The method, boiled down: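 ELISA with plate-bound GST-p53 (1-101) phosphorylated by DNA-PK (0.1 μg/mL final) with 20 μM ATP for 1 h at 25 °C. Compounds tested over 10 3-fold doses from 100 nM top final. Phospho-p53 Ser15 detected by antibody, HRP and TMB, absorbance at 450 nm.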
In general terms: ELISA stands for enzyme-linked immunosorbent assay.

In another test the target is ATM (Homo sapiens (Human), UniProt Q13315). Description: ATM in Cell Western Assay (pKAP1 in etoposide-treated MCF-7 cells). It is filed as cell-based. The procedure, abridged: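 Cells received compounds in a 10-dose, 3-fold series from a 1 μM final top concentration, then 100 μM etoposide, for 1 hr at 37° C. They were then fixed with paraformaldehyde and permeabilized with 0.1% Triton X-100. After immunostaining, plates were scanned on an infrared imager.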
Chain of ATM (Q13315 whole entry): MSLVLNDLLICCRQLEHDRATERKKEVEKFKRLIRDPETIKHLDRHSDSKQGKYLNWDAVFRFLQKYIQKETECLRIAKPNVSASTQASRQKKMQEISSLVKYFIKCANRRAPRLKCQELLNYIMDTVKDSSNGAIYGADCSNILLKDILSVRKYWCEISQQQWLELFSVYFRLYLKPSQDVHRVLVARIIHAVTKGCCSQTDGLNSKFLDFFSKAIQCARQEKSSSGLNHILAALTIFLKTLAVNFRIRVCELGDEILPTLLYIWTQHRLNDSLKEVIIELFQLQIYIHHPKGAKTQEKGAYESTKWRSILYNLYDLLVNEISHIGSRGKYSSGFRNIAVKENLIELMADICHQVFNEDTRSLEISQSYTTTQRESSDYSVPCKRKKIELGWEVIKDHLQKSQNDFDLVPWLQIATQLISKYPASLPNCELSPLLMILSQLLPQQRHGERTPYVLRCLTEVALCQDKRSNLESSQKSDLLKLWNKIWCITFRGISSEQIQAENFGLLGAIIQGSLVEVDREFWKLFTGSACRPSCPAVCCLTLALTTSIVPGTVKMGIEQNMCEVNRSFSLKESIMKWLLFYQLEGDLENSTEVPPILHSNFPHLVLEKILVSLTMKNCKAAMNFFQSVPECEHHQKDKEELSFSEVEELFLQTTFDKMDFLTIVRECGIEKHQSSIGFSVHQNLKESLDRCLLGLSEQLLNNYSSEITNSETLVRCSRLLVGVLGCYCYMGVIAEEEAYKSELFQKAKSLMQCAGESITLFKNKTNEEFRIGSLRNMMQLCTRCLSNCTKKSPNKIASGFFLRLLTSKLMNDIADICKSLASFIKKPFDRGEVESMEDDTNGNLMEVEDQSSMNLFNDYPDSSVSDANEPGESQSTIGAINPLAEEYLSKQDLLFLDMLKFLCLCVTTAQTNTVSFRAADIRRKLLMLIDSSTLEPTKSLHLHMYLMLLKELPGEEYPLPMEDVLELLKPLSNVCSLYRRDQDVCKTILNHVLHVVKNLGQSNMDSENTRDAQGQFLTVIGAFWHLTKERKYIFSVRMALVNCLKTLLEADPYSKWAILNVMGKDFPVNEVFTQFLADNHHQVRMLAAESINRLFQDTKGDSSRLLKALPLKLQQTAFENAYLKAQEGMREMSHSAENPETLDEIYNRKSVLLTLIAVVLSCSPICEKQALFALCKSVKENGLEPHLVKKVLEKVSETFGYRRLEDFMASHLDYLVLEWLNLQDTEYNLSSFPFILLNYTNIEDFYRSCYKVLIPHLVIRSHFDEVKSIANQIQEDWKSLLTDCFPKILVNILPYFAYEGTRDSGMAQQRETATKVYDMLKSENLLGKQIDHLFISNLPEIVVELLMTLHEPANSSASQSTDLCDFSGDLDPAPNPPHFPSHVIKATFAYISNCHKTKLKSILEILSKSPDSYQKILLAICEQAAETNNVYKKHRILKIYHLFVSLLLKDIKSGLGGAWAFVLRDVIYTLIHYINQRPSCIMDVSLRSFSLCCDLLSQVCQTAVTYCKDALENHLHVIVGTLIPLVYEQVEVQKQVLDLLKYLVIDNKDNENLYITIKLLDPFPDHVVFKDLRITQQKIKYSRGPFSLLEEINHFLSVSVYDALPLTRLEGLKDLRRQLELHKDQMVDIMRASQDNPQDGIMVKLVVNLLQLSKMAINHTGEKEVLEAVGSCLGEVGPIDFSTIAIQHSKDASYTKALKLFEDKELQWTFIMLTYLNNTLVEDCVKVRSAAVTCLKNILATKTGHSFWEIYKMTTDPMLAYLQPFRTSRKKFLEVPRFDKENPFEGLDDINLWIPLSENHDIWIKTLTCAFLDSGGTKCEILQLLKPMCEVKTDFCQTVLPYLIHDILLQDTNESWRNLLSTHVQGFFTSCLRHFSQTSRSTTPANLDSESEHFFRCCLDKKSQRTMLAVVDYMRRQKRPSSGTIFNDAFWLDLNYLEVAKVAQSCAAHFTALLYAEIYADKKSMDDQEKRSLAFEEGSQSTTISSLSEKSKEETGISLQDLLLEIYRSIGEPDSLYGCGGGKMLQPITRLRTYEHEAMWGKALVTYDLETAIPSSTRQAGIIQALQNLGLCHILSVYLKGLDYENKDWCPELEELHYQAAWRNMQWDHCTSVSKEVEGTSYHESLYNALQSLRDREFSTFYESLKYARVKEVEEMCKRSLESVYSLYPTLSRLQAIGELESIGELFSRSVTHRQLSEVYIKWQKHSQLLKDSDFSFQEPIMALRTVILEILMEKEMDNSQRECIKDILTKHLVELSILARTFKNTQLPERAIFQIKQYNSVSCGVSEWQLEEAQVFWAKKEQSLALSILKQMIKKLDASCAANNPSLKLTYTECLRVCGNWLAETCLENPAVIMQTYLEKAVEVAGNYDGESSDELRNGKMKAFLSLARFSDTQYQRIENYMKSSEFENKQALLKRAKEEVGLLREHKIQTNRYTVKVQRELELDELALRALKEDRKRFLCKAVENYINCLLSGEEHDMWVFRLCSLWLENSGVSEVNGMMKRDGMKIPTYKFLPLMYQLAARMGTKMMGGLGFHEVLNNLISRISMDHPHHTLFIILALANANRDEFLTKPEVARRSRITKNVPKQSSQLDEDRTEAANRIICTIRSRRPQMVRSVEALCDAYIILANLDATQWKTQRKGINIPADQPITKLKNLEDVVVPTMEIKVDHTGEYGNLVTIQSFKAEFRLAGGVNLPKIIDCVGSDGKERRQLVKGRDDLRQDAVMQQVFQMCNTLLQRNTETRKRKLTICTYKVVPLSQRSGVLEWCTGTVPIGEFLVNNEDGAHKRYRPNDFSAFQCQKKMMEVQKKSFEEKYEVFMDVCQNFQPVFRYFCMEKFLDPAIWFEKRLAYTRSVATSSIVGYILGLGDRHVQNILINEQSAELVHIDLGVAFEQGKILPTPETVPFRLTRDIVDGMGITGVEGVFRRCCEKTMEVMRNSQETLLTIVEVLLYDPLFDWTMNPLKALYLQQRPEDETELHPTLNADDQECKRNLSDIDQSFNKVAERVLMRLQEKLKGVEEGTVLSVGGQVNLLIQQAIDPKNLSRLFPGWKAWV

The mark [1] stands for this setting: pKAP1 in etoposide-treated MCF-7 cells.
[2] abbreviates: MCF-7 cells, etoposide 100 μM, 1 hr, pKAP1 readout.

As a reminder, the IC50 is the point on the concentration scale where inhibition reaches its midpoint. The low end stands for higher potency, the high end for lower potency. With `CN1CC2CN(c3ncc(-c4ccc5ncc6c(c5c4)C4(CCC4)C(=O)N6C)cc3NS(C)(=O)=O)CC2C1` (centres unmarked) [Example 350, N-(5-(3′-Methyl-2′-oxo-2′,3′-dihydrospiro[cyclobutane-1,1′-pyrrolo[2,3-c]quinolin]-8′-yl)-2-(5-methylhexahydropyrrolo[3,4-c]pyrrol-2(1H)-yl)pyridin-3-yl)methanesulfonamide formate], the IC50 at DNA-PK (20 μM ATP) and at ATM (setting [1]) was 1 to 100 nM each time.
For `CN(C)CCCOc1ncc(-c2ccc3ncc4c(c3c2)C2(CC2)C(=O)N4C)cc1NS(=O)(=O)c1cnn(C)c1` [Example 91, N-(2-(3-(Dimethylamino)propoxy)-5-(3′-methyl-2′-oxo-2′,3′-dihydrospiro [cyclopropane-1,1′-pyrrolo[2,3-c]quinolin]-8′-yl)pyridin-3-yl)-1-methyl-1H-pyrazole-4-sulfonamide], the half-inhibitory concentration (IC50) against DNA-PK (ATP 20 μM) was less than 0.5 nM; at ATM (setting [2]) it was 1 to 100 nM.
Regarding `COc1ccc([C@H]2C[C@]3(C2)C(=O)N(C)c2cnc4cc(F)c(-c5cnc(OCCNC(C)C)c(NS(C)(=O)=O)c5)cc4c23)cn1` [Example 430], the IC50 against DNA-PK (20 μM ATP) and on ATM (setting [1]) was 1 to 100 nM throughout.
Take `CNCCCOc1ncc(-c2ccc3ncc4c(c3c2)C2(CCC2)C(=O)N4C)cc1NS(C)(=O)=O` [Example 240, N-(5-(3′-Methyl-2′-oxo-2′,3′-dihydrospiro[cyclobutane-1,1′-pyrrolo[2,3-c]quinolin]-8′-yl)-2-(3-(methylamino)propoxy)pyridin-3-yl) methanesulfonamide formate]: the IC50 is less than 0.5 nM at DNA-PK (ATP 20 μM) and 1 to 100 nM on ATM (setting [2]).
For `Cc1cc(S(=O)(=O)Nc2cc(-c3ccc4ncc5c(c4c3)C3(CCC3)C(=O)N5C)cnc2N2CCN(C)CC2)sn1` [Example 246, 3-Methyl-N-(5-(3′-methyl-2′-oxo-2′,3′-dihydrospiro[cyclobutane-1,1′-pyrrolo[2,3-c]quinolin]-8′-yl)-2-(4-methylpiperazin-1-yl)pyridin-3-yl)isothiazole-5-sulfonamide], the figures for the concentration for half-maximal inhibition (IC50) at DNA-PK (ATP 20 μM) and on ATM (setting [2]) were less than 0.5 nM and 1 to 100 nM, respectively.
With `CNC1CN(c2ncc(-c3cc4c5c(cnc4cc3F)N(C)C(=O)C53CCC3)cc2NS(=O)(=O)N(C)C)C1` [Example 332, 8′-{5-[(Dimethylsulfamoyl)amino]-6-[3-(methylamino)azetidin-1-yl]pyridin-3-yl}-7′-fluoro-3′-methyl-2′,3′-dihydrospiro[cyclobutane-1,1′-pyrrolo[2,3-c]quinoline]-2′-one], the IC50 on DNA-PK (ATP 20 μM) and against ATM (setting [2]) was 1 to 100 nM throughout.
`CN(C)CCCOc1ncc(-c2ccc3ncc4c(c3c2)C2(CC2)C(=O)N4C)cc1NS(=O)(=O)c1ccc(OC(F)F)cc1` [Example 126, 4-(Difluoromethoxy)-N-(2-(3-(dimethylamino)propoxy)-5-(3′-methyl-2′-oxo-2′,3′-dihydrospiro[cyclopropane-1,1′-pyrrolo[2,3-c]quinolin]-8′-yl)pyridin-3-yl)benzenesulfonamide]: the 50% inhibitory concentration (IC50) against DNA-PK (ATP 20 μM) was less than 0.5 nM; against ATM (setting [2]), 1 to 100 nM.
With `CN1C(=O)C2(CCC2)c2c1cnc1cc(F)c(-c3cnc(N4CC(N(C)C)C4)c(NS(=O)(=O)N(C)C)c3)cc21` [Example 316, 8′-{6-[3-(Dimethylamino)azetidin-1-yl]-5-[(dimethylsulfamoyl)amino]pyridin-3-yl}-7′-fluoro-3′-methyl-2′,3′-dihydrospiro[cyclobulane-1,1′-pyrrolo[2,3-c]quinoline]-2′-one hydrochloride], the half-inhibitory concentration (IC50) against DNA-PK (ATP 20 μM) and against ATM (setting [2]) was 1 to 100 nM throughout.
Take `CNCCOc1ncc(-c2ccc3ncc4c(c3c2)C2(CCC2)C(=O)N4C)cc1NS(=O)(=O)c1ccccc1` [Example 250, N-(5-(3′-Methyl-2′-oxo-2′,3′-dihydrospiro[cyclobutane-1,1′-pyrrolo[2,3-c]quinolin]-8′-yl)-2-(2-(methylamino)ethoxy)pyridin-3-yl) benzenesulfonamide]: the concentration for half-maximal inhibition (IC50) against DNA-PK (ATP 20 μM) was less than 0.5 nM; at ATM (setting [2]) it was 1 to 100 nM.
On to `CN(C)CCCOc1ncc(-c2ccc3ncc4c(c3c2)C2(CCC2)C(=O)N4C)cc1NS(=O)(=O)c1cc(Cl)cc(Cl)c1` [Example 157, 3,5-Dichloro-N-(2-(3-(dimethylamino)propoxy)-5-(3′-methyl-2′-oxo-2′,3′-dihydrospiro [cyclobutane-1,1′-pyrrolo[2,3-c]quinolin]-8′-yl)pyridin-3-yl) benzenesulfonamide hydrochloride], for which the IC50 against DNA-PK (ATP 20 μM) and against ATM (setting [2]) was 1 to 100 nM in each case.
With `COc1cc([C@H]2C[C@@]3(C2)C(=O)N(C)c2cnc4cc(F)c(-c5cnc(OCCNC(C)C)c(NS(C)(=O)=O)c5)cc4c23)ccn1` [Example 433, trans-N-(5-(7′-Fluoro-3-(2-methoxypyridin-4-yl)-3′-methyl-2′-oxo-2′,3′-dihydrospiro[cyclobutane-1,1′-pyrrolo[2,3-c]quinolin]-8′-yl)-2-(2-(isopropylamino)ethoxy)pyridin-3-yl)methanesulfonamide], the concentration for half-maximal inhibition (IC50) on DNA-PK (20 μM ATP) is 1 to 100 nM; against ATM (setting [1]) it was more than 100 nM.
`CC(C)NCCOc1ncc(-c2ccc3ncc4c(c3c2)C2(CCCC2)C2=NCCN24)cc1NS(C)(=O)=O` [Example 257, N-(5-(8′,9′-Dihydrospiro[cyclopentane-1,11′-imidazo[1′,2′:1,5]pyrrolo[2.3-c]quinolin]-2′-yl)-2-(2-(isopropylamino)ethoxy)pyridin-3-yl)methanesulfonamide]: the IC50 against DNA-PK (ATP 20 μM) was less than 0.5 nM; at ATM (setting [2]) it was 1 to 100 nM.
With `CC(C)NCCOc1ncc(-c2cc3c(cc2F)ncc2c3[C@]3(C[C@@H](c4ccccc4)C3)C(=O)N2C)cc1NS(C)(=O)=O` [Example 415, trans-N-(5-(7′-Fluoro-3′-methyl-2′-oxo-3-phenyl-2′,3′-dihydrospiro[cyclobulane-1,1′-pyrrolo[2,3-c]quinolin]-8′-yl)-2-(2-(isopropylamino)ethoxy)pyridin-3-yl)methanesulfonamide hydrochloride], the IC50 against DNA-PK (20 μM ATP) and on ATM (setting [1]) was 1 to 100 nM each time.
Consider `CN(C)CCCOc1ncc(-c2ccc3ncc4c(c3c2)C2(CCC2)C(=O)N4C)cc1NS(=O)(=O)CCN(C)C` [Example 264, 2-(Dimethylamino)-N-(2-(3-(dimethylamino)propoxy)-5-(3′-methyl-2′-oxo-2′,3′-dihydrospiro[cyclobutane-1,1′-pyrrolo[2,3-c]quinolin]-8′-yl)pyridin-3-yl)ethane-1-sulfonamide], for which the IC50 against DNA-PK (ATP 20 μM) lay in the range of 1 to 100 nM; on ATM (setting [2]), 0.5 to 1 nM.
`CN(C)CCCOc1ncc(-c2ccc3ncc4c(c3c2)C2(CC2)C(=O)N4C)cn1` [Example 71, 8′-(2-(3-(Dimethylamino)propoxy)pyrimidin-5-yl)-3′-methylspiro [cyclopropane-1,1′-pyrrolo[2,3-c]quinolin]-2′(3′-H)-one]: the IC50 against DNA-PK (ATP 20 μM) was more than 100 nM; against ATM (setting [2]), 1 to 100 nM.
Turning to `CC(C)N1CC2(C1)C(=O)N(C)c1cnc3cc(F)c(-c4cnc(N5CCC(N6CCCCC6)CC5)c(NS(C)(=O)=O)c4)cc3c12` [Example 486], the IC50 at DNA-PK (20 μM ATP) and at ATM (setting [1]) was 1 to 100 nM each time.
As for `CN1C(=O)C2(CCC2)c2c1cnc1cc(F)c(-c3cnc(N4CC(N(C)C)C4)c(NS(=O)(=O)c4ccccc4)c3)cc21` [Example 324, N-(2-(3-(Dimethylamino)azetidin-1-yl)-5-(7′-fluoro-3′-methyl-2′-oxo-2′,3′-dihydrospiro[cyclobutane-1,1′-pyrrolo[2,3-c]quinolin]-8′-yl)pyridin-3-yl)benzenesulfonamide hydrochloride], the IC50 at DNA-PK (ATP 20 μM) and at ATM (setting [2]) was 1 to 100 nM each time.
For the compound `CO[C@H]1C[C@@]2(C1)C(=O)N(C)c1cnc3cc(F)c(-c4cnc(OCCNC(C)C)c(NS(=O)(=O)N(C)C)c4)cc3c12` [Example 390], the IC50 at DNA-PK (20 μM ATP) and against ATM (setting [1]) was 1 to 100 nM throughout.
On to `CC(C)NCCOc1ncc(-c2cc3c(cc2F)ncc2c3[C@]3(C[C@H](COC(C)C)C3)C(=O)N2C)cc1NS(=O)(=O)C(C)C` [Example 412, cis-N-(5-(7′-Fluoro-3-(isopropoxymethyl)-3′-methyl-2′-oxo-2′,3′-dihydrospiro[cyclobutane-1,1′-pyrrolo[2,3-c]quinolin]-8′-yl)-2-(2-(isopropylamino)ethoxy)pyridin-3-yl)propane-2-sulfonamide], for which the IC50 against DNA-PK (20 μM ATP) and on ATM (setting [1]) was 1 to 100 nM each time.
Regarding `CC(C)NCCOc1ncc(-c2cc3c4c(cnc3cc2F)N(C)C(=O)C42CN(c3ccc4c(c3)OCO4)C2)cc1NS(C)(=O)=O` [Example 544, N-(5-(1-(Benzo[d][1,3]dioxol-5-yl)-7′-fluoro-3′-methyl-2′-oxo-2′,3′-dihydrospiro[azetidine-3,1′-pyrrolo[2,3-c]quinolin]-8′-yl)-2-(2-(isopropylamino)ethoxy)pyridin-3-yl)methanesulfonamide], the IC50 at DNA-PK (20 μM ATP) was less than 0.5 nM; on ATM (setting [1]) it was 1 to 100 nM.
For `COc1ncc(-c2ccc3ncc4c(c3c2)C2(CC2)C(=O)N4CC#N)cc1NS(=O)(=O)c1ccccc1` [Example 21, N-(5-(3′-(Cyanomethyl)-2′-oxo-2′,3′-dihydrospiro[cyclopropane-1,1′-pyrrolo[2,3-c]quinolin]-8′-yl)-2-methoxypyridin-3-yl)benzenesulfonamide], the IC50 against DNA-PK (ATP 20 μM) is less than 0.5 nM; at ATM (setting [2]) it was 1 to 100 nM.
As to `CN(C)CCCOc1ncc(-c2ccc3ncc4c(c3c2)C2(CC2)C(=O)N4C)cc1NS(=O)(=O)c1ccccc1F` [Example 107, N-(2-(3-(Dimethylamino)propoxy)-5-(3′-methyl-2′-oxo-2′,3′-dihydrospiro[cyclopropane-1,1′-pyrrolo[2,3-c]quinolin]-8′-yl)pyridin-3-yl)-2-fluorobenzenesulfonamide], the 50% inhibitory concentration (IC50) against DNA-PK (ATP 20 μM) is less than 0.5 nM; against ATM (setting [2]), 0.5 to 1 nM.
